Assay results as given in patent US4325970A, “15-Acetyl-prostaglandins” (Hoffmann-La Roche Inc., priority 1980, dated 1982).
Like-named read-outs stand apart in the source and are kept apart here.

Columns and labels:
[1] = system: acid secretion; test: acid secretion in three conscious dog models (Heidenhain pouches, Pavlov pouches or gastric fistulae); type: in vivo
Source text: These models consisted of concious dogs prepared with Heidenhain pouches, Pavlov pouches or gastric fistulae.

[2] = system: gastric secretion; test: gastric secretory depressant test in the unanesthetized rat with acute gastric fistula (acid concentration, acid output, pH); type: in vivo; conditions: for % Inhibition, acid concentration (S.E.M.) / % Inhibition, acid output (S.E.M.): 10 μg/kg b.w. I.G.
Protocol: were tested as gastric secretory depressants in the unanesthesized rat with acute gastric fistula by the following procedure:
During this baseline period, the pH of the secretory flow was about 1.5 for each animal. Individual samples were collected at 10-minute intervals during this baseline period to monitor the pH. The compounds dissolved in polyethylene glycol-400 were administered intragastrically (I.G.) after this baseline period and samples were continuously collected for up to 180 minutes. The samples of gastric contents were subsequently assayed for volume, total acid concentration (μEq/ml) and total acid output for 10 minutes (μEq/10 minutes).
In addition to intragastric (I.G.) dosages, the activity of these compounds was tested for intraduodenal (I.D.) and intravenous administration (I.V.) to unanesthetized rats with acute gastric fistula as described above. For I.D. administration, the compounds were dissolved in polyethylene glycol-400. On the other hand, a trimethylolnitro-methane/ethanol solution was used for I.V. dosing. […] With this dose and route of administration of Compound A, a pronounced effect on pH was seen, an average increase of 3.1 pH units over 3 hours post administration. With the I.G. dose of Compound A of 5 μg/Kg b.w., an average increase of 1.6 pH units occurred. […] The antisecretory effect of Compound A seen after I.V. administration (10 μg/Kg b.w.) was low, amounting to about 1/4 to 1/5 that seen following I.G. dosage of Compound A. With the I.V. route of administration at this dose of Compound A (10 μg/Kg b.w.) effect on pH was minimal, 1/10 to 1/20 that seen after I.G. administration of an identical dose of Compound A.

[3] = system: gastric microbleeding induced by aspirin; type: in vivo, rat; conditions: for blood lost after Compound A in combination with aspirin: intragastric, one hour
Source text: To study the effects of Compound A on gastric microbleeding induced by aspirin, a technique was developed based on that used by Menasse-Gdynia and Krupp, Toxicol, Appl. Pharmacol. 29, 389-396. The technique involves the microsurgical preparation of rats so as to isolate the stomach in an accessible, perfused system and the utilization of chromium-51-labelled red blood cells (^51 Cr-RBC) as a convenient handle for the assessment of bleeding from drug-induced gastric microlesions.
Rats were microsurgically implanted with a cannula in the vena cava (for the injection of ^51 Cr-RBC), a cannula in the forestomach (for constant infusion of tap water) and a cannula in the duodenum at the pyloric sphincter (for collection ot total gastric effluent). After a 30 min wash with tap water infused at 5.5 m/hr, each animal was administered either aspirin (100 mg/kg) or aspirin in combination with Compound A. Ease dose was administered intragastrically in 1 ml 40% polyethylene glycol (having molecular weight of 400) vehicle and allowed to remain in the stomach for 15 min. Simultaneously 0.9 ml ^51 Cr-RBC (3×10^6) was administered through the vena cava. Gastric effluent was collected every 5 min for a total of […]. Radioactivity was determined in a gamma counter. The results are expressed as microliters of whole blood lost during the 60 min experiments, based on the following formula: [formula]

[4] = system: gastric secretion stimulated by histamine; test: Heidenhain pouch dog test, histamine-stimulated gastric secretion; type: in vivo, dog (mongrel)
Protocol: Compound A was next tested at a dose level which would cause a definite and reproducible pharmacological effect.
The Heindenhain pouch test involved collecting gastric juice from the denervated (Heidenhain) gastric pouches of mongrel dogs. This collection was accomplished by gravity drainage, using a specially manufactured titanium cannula. Gastric secretion was stimulated by intravenous infusion of a saline solution of histamine hydrochloride, 20 μg/kg/hr, injected at a rate of 1 ml/min. This submaximal stimulation elicited acid secretion approximately 30% of maximal, without the tachycardia commonly observed with higher doses of histamine. Samples of gastric juice were collected at 15-min intervals. Compound A was administered orally via a 1/4 oz. hard gelatin capsule. The animals were dosed 90 min after the start of histamine infusion and the test continued for 9 hours post-drug administration. The dogs were concious and stood quietly in Pavlov slings during the experiments. Sample volume was measured, and pH, acid concentration (mEq/L), acid output (mEq/15-min periods), as well as pepsin concentration and output were determined. Vital signs were monitored throughout the test and kennel observations continued for 24 hr.
The indexes chosen to assess drug efficacy were acid concentration and acid output. These parameters were expressed as a percentage of the average of the three 15-min values prior to dosage. […] […] Values of pH increased from a control average of 1.0 to a maximum of 2.0 six hours post drug. Analysis of control data for this group of Heindenhain-pouch dogs indicated no significant decrease in gastric juice volumes from control levels during these extended studies. In these control animals, pH values averaged 0.9 throughout the entire experiment. Therefore, no significant decreases in acid concentration or output would be expected in the control results.

[5] = 20 minutes after administration
[6] = 30 minutes after administration
[7] = 40 minutes after administration
[8] = 50 minutes after administration
[9] = 60 minutes after administration
[10] = 70 minutes after administration
[11] = 80 minutes after administration
[12] = 90 minutes after administration
[13] = 100 minutes after administration
[14] = 110 minutes after administration
[15] = 120 minutes after administration
[16] = 130 minutes after administration
[17] = 140 minutes after administration
[18] = 150 minutes after administration
[19] = 160 minutes after administration
[20] = 170 minutes after administration
[21] = 180 minutes after administration
[22] = Compound A 10 μg/kg + aspirin 100 mg/kg

Q: Which results are given for CCCCC(C)(C)[C@@H](/C=C/C1[C@H](C)CC(=O)[C@@H]1C/C=C\CCCC(=O)O)OC(C)=O (stereo in doubt) [Compound A, (8R,11R,12S,15R,5Z,13E)-15-acetyloxy-11,16,16-trimethyl-9-oxoprosta-5,13-dien-1-oic acid]?
A: inhibition of acid secretion ([1]; 50 to 100 μg/kg I.V.): at best, intermittent, slight to moderate inhibition of acid secretion of short duration; inhibition of acid secretion ([1]; oral and intrapouch dose of 10 to 50 μg/kg): at best, intermittent, slight to moderate inhibition of acid secretion of short duration; duration of action ([2]; 5 μg/Kg I.G.): 110 min; response in pH relative to that seen with the 10 μg/Kg b.w. dose of Compound A ([2]; 5 μg/Kg I.G. vs 10 μg/Kg I.G.): about 50%; average increase of pH ([2]; 5 μg/Kg b.w. I.G.): 1.6 pH units; effect on pH compared with 10 μg/Kg I.G. of Compound B ([2]; 5 μg/Kg b.w. I.G.): essentially equivalent to that of the 10 μg/Kg I.G. of Compound B; duration of action ([2]; 10 μg/Kg I.G.): 180 min; effect on acid concentration and output compared with I.G. dosage ([2]; 10 μg/Kg b.w. I.D.): no different to the I.G. dosage of Compound A; effect on pH compared with I.G. route ([2]; 10 μg/Kg b.w. I.D.): much lower than by the I.G. route; average increase of pH ([2]; 10 μg/Kg b.w. I.G. (printed 10 g/Kg), over 3 hours post administration): 3.1 pH units; antisecretory effect ([2]; 10 μg/Kg b.w. I.V.): low; effect on pH ([2]; 10 μg/Kg b.w. I.V.): minimal; % Inhibition, acid concentration (S.E.M.) [2, 5]: 34 (16) %; % Inhibition, acid output (S.E.M.) [2, 5]: 39 (14) %; % Inhibition, acid concentration (S.E.M.) [2, 6]: 91 (9) %; % Inhibition, acid output (S.E.M.) [2, 6]: 91 (9) %; % Inhibition, acid concentration (S.E.M.) [2, 7]: 70 (14) %; % Inhibition, acid output (S.E.M.) [2, 7]: 69 (17) %; % Inhibition, acid concentration (S.E.M.) [2, 8]: 50 (17) %; % Inhibition, acid output (S.E.M.) [2, 8]: 43 (20) %; % Inhibition, acid concentration (S.E.M.) [2, 9]: 67 (21) %; % Inhibition, acid output (S.E.M.) [2, 9]: 73 (17) %; % Inhibition, acid concentration (S.E.M.) [2, 10]: 67 (21) %; % Inhibition, acid output (S.E.M.) [2, 10]: 74 (17) %; % Inhibition, acid concentration (S.E.M.) [2, 11]: 67 (21) %; % Inhibition, acid output (S.E.M.) [2, 11]: 79 (16) %; % Inhibition, acid concentration (S.E.M.) [2, 12]: 80 (20) %; % Inhibition, acid output (S.E.M.) [2, 12]: 80 (20) %; % Inhibition, acid concentration (S.E.M.) [2, 13]: 67 (20) %; % Inhibition, acid output (S.E.M.) [2, 13]: 60 (25) %; % Inhibition, acid concentration (S.E.M.) [2, 14]: 60 (24) %; % Inhibition, acid output (S.E.M.) [2, 14]: 68 (20) %; % Inhibition, acid concentration (S.E.M.) [2, 15]: 67 (20) %; % Inhibition, acid output (S.E.M.) [2, 15]: 72 (20) %; % Inhibition, acid concentration (S.E.M.) [2, 16]: 80 (19) %; % Inhibition, acid output (S.E.M.) [2, 16]: 80 (20) %; % Inhibition, acid concentration (S.E.M.) [2, 17]: 100 (0) %; % Inhibition, acid output (S.E.M.) [2, 17]: 100 (0) %; % Inhibition, acid concentration (S.E.M.) [2, 18]: 72 (17) %; % Inhibition, acid output (S.E.M.) [2, 18]: 92 (5) %; % Inhibition, acid concentration (S.E.M.) [2, 19]: 80 (16) %; % Inhibition, acid output (S.E.M.) [2, 19]: 82 (18) %; % Inhibition, acid concentration (S.E.M.) [2, 20]: 80 (15) %; % Inhibition, acid output (S.E.M.) [2, 20]: 80 (20) %; % Inhibition, acid concentration (S.E.M.) [2, 21]: 67 (33) %; % Inhibition, acid output (S.E.M.) [2, 21]: 71 (29) %; antisecretory effects ([2]; I.G. dose 10 g/Kg [sic] b.w.): pronounced antisecretory effects; duration of antisecretory effect ([2]; I.G. dose 10 g/Kg [sic] b.w.): at least 3 hours; duration of antisecretory effect compared with Compound B ([2]; I.G. dose 10 g/Kg [sic] b.w.): significantly longer than that seen with Compound B; blood lost after Compound A in combination with aspirin ([3]; Compound A 1.25 μg/kg + aspirin 100 mg/kg): 178 µL; blood lost after Compound A in combination with aspirin ([3]; Compound A 2.5 μg/kg + aspirin 100 mg/kg): 56 µL; prevention of aspirin-induced microbleeding [3, 22]: complete prevention; blood lost after Compound A in combination with aspirin [3, 22]: 0 µL; effect on aspirin-induced bleeding ([3]; Compound A 1.25, 2.5 or 10 μg/kg + aspirin 100 mg/kg): reduced or prevented bleeding in a dose-dependent manner; activity ([4]; 100 μg/kg p.o.): potential for significant activity; dogs with 50% or better acid reduction for more than two hours ([4]; 100 μg/kg p.o., six dogs): Three of the six dogs; acid reduction ([4]; 100 μg/kg p.o., in three of the six dogs, for more than two hours post dosage): ≥ 50%; duration of 50% or better acid reduction ([4]; 100 μg/kg p.o., three of the six dogs): more than two hours; activity compared with 500 μg/kg level ([4]; 250 μg/kg oral): almost as good as that found at the 500 μ/kg level; antisecretory activity ([4]; 500 μg/kg oral): marked antisecretory activity of long duration; duration of >60% inhibition of acid output ([4]; 500 μg/kg oral): > 9 h; start of >60% inhibition of acid output after administration ([4]; 500 μg/kg oral): 45 min; inhibition of acid output ([4]; 500 μg/kg oral, beginning 45 minutes after administration, longer than 9 hours, mean=0.38 mEq/15 minutes): > 60%; reduction of the acid concentration from control values ([4]; 500 μg/kg oral, constant between 4 and 5 3/4 hours post drug, control mean=136 mg/L as printed): ≥ 50%; maximum pH of gastric juice ([4]; 500 μg/kg oral, six hours post drug, from a control average of 1.0): 2.0

Q: For CCCCC(C)(C)[C@H](O)/C=C/C1[C@H](C)CC(=O)[C@@H]1C/C=C\CCCC(=O)O (stereo in doubt) [Compound B, (8R,11R,12S,15R,5Z,13E)-15-hydroxy-11,16,16-trimethyl-9-oxoprosta-5,13-dien-1-oic acid, reference compound], which “% Inhibition, acid concentration (S.E.M.)” value [2, 5] is on record?
A: Its value is 62 (5) %.

Q: What about the “% Inhibition, acid output (S.E.M.)” value [2, 5] of the same molecule?
A: Its value is 69 (3) %.

Q: What about the “% Inhibition, acid concentration (S.E.M.)” value [2, 6] of the same molecule?
A: The value was 67 (6) %.

Q: And the “% Inhibition, acid output (S.E.M.)” value [2, 6]?
A: The value was 72 (2) %.

Q: And the “% Inhibition, acid concentration (S.E.M.)” value [2, 7]?
A: Its value is 58 (6) %.

Q: What about the “% Inhibition, acid output (S.E.M.)” value [2, 7] of the same molecule?
A: The value was 68 (6) %.

Q: What about the “% Inhibition, acid concentration (S.E.M.)” value [2, 8] of the same molecule?
A: The value was 59 (5) %.

Q: What about the “% Inhibition, acid output (S.E.M.)” value [2, 8] of the same molecule?
A: Its value is 73 (2) %.

Q: What about the “% Inhibition, acid concentration (S.E.M.)” value [2, 9] of the same molecule?
A: The value was 43 (5) %.

Q: And the “% Inhibition, acid output (S.E.M.)” value [2, 9]?
A: Its value is 78 (7) %.

Q: What about the “% Inhibition, acid concentration (S.E.M.)” value [2, 10] of the same molecule?
A: Its value is 45 (5) %.

Q: What about the “% Inhibition, acid output (S.E.M.)” value [2, 10] of the same molecule?
A: The value was 71 (3) %.

Q: What about the “% Inhibition, acid concentration (S.E.M.)” value [2, 11] of the same molecule?
A: The value was 44 (6) %.

Q: And the “% Inhibition, acid output (S.E.M.)” value [2, 11]?
A: Its value is 77 (7) %.

Q: And the “% Inhibition, acid concentration (S.E.M.)” value [2, 12]?
A: Its value is 25 (13) %.

Q: What about the “% Inhibition, acid output (S.E.M.)” value [2, 12] of the same molecule?
A: Its value is 57 (17) %.
